The source of these data is patent US10098352B2, “Honeybee repellents and uses thereof” (Inscent, Inc., priority 2011, dated 2018).

In experiment [1] the test system is Apis mellifera Carniolan foraging worker honeybees. Put plainly: Proboscis extension response (PER) assay in bees conditioned to 2-heptanone. The conditions noted are these: final compound concentration 0.5% (TRITON X-100/water), 4 s exposure; only bees PER-positive to 2-heptanone and negative to controls counted. The format is in vivo. Here is the method:
To determine whether a living honeybee can recognize a candidate compound, these compounds were tested using a proboscis extension response (PER) assay using classical conditioning approaches. Proboscis extension response conditioning is a case of appetitive learning, in which bees learn to associate odor stimuli with sucrose reward in the laboratory. In this case, bees were conditioned to produce a PER to 2-heptanone as the conditioned stimulus and a sugar reward as the unconditioned stimulus. These trained bees were then exposed to an odor pulse of a candidate compound to test whether a candidate compound would also produce a PER. If the candidate compound “mimics” 2-heptanone then the honeybee will extend its proboscis.
For conditioning procedures, Apis mellifera Carniolan foraging worker honeybees were obtained from a local apiary (typically 60 bees per shipment). The honeybees were held overnight in insect cages with food and water freely available, in an environmentally controlled room on a light cycle similar to the ambient cycle at the time of the assay.
For conditioning procedures, all tests were done in an odorant delivery apparatus set inside a fume hood. The apparatus comprised a set of open-ended, horizontal, 3 cm diameter by 10 cm long plastic tubes. Each tube was designed where a honeybee could be positioned at the distal end of a tube, with the opening at the other end of the tube located proximal to an inlet of the fume hood. To deliver an odorant, room air was pumped by a diaphragm pump through a particle filter via 0.25 inch plastic tubing at approximately 0.7 m/sec. The air flow passes into the headspace above an odorant (0.5% [v/v]2-heptanone dissolved in odorless light paraffin oil) contained in a 100 mL bottle. The headspace air then passes through another plastic tube to a manifold of 4-way valves, each of which was attached near the proximal end of a plastic tube containing a bee. Each bee was exposed separately for a desired time period to the odorant by opening and closing the appropriate valve. When each valve was closed, the odor was flushed away immediately by the continuous fume hood air stream.
To train a honeybee to respond to a conditioned and unconditioned stimuli, bees were placed, without anesthesia, in individual 1.5 mL micro-centrifuge holding tubes and held overnight without access to food or water. The holding tubes containing the starved bees were placed in racks in groups of eight. One rack at a time was placed behind the odorant delivery apparatus so that each bee's head is centered at the distal end of a horizontal plastic tube. Each bee was exposed to the 2-heptanone odorant alone for four seconds, and then while being fed an 80% sucrose solution for and additional three seconds. The sucrose solution was delivered on a piece of saturated filter paper held in forceps. […] Positive and negative responses were recorded. A positive PER was scored when a bee extended its proboscis before the sucrose appeared. In a typical trial, 48 individual bees were subjected to conditioning. Six rounds of training were done before testing began, and typically a majority of the bees were successfully conditioned by the second or third round of training.
After conditioning, honeybees were tested with the candidate compounds the same day or on the following day or, most commonly, both. When held overnight, bees were fed with sucrose and kept in their holding tubes. When tested the day after training, bees were given one or more rounds of conditioning with 2-heptatone to refresh their memories. Candidate compounds stocks were made at 5% (w/v) in polyoxyethylene octyl phenyl ether (TRITON® X-100), a non-ionic detergent/surfactant, and stored at 4° C. This detergent is similar to substances used as carriers for a variety of commercial pest-control agents, can act as a solvent for both hydrophilic and hydrophobic substances, and is itself nearly odorless. […]

Experiment [2] has as its system OBP2. Description: Fluorescent-quench ligand-protein-binding assay (OBP2 binding screen). Also noted: species or system Apis mellifera; key: Low, indicates no detectable binding to OBP2.; Moderate, indicates that 50% or less of the compound bound to OBP2.; Strong, indicates that 51% or more of the compound bound to OBP2. The source says:
To identify a honeybee repellent disclosed herein, candidate compounds were screened based upon the fact that 2-heptanone is an established repellent of bees. 2-heptanone is thought to mediate its behavioral response through binding to a specific odorant-binding protein called OBP2. Therefore compounds that bind OBP2 have the potential to act as odor “mimics” of 2-heptanone. By utilizing a fluorescent-quench, ligand-protein-binding assay, 30,000 compounds from the DIVERSET® library (ChemBridge Corp., San Diego, Calif.), a chemical library, were screened and over 150 candidate compounds were isolated that bind OBP2 (Table 1). Such assays are generally known in the art. See, e.g., Briand, et al., Ligand-Binding Properties and Structural Characterization of a Novel Rat Odorant-Binding Protein Variant, Eur. J. Biochem. 267(10): 3079-3089 (2000); Briand, et al., Ligand Binding and Physico-Chemical Properties of ASP2, A Recombinant Odorant-Binding Protein From Honeybee (Apis mellifera L.), Eur. J. Biochem. 268(3): 752-760 (2001); Briand, et al., Characterization of a Chemosensory Protein (ASP3c) from Honeybee (Apis mellifera L.) as a Brood Pheromone Carrier, Eur. J. Biochem. 269(18): 4586-4596 (2002), each of which is hereby incorporated by reference in its entirety.

In experiment [3] the test system is Apis mellifera Carniolan foraging worker honeybees. Description: Choice test in free-flight box apparatus. The class given is in vivo. The conditions noted are these: for Repellence Score: percent food-weight change vs corresponding dishes in preceding test. Here is the method: To determine whether living honeybees will choice to move towards a source of a candidate compound, these compounds were assayed using a choice test in a free-flight box apparatus.
All tests were done in a free-flight box apparatus. The apparatus comprises a 244 cm long×46 cm deep×30 cm high clear plastic box including two equally-sized independent testing chambers, each with 10 cm diameter air inlets that admit filtered room air, separated by a smaller central chamber with a screened air outlet to each testing chamber. Air can be pulled through the sealed box via a 10 cm diameter duct from the air outlet using an AQE Fume Fighter 500 fume extractor (BPA Air Quality Solutions, LLC, Charleston, S.C.), which removes the test odors using activated charcoal and HEPA filters. The box is housed in an environmentally controlled room with overhead illumination timed to correspond to the current ambient light cycle including 2 additional sets of lights timed to approximate crepuscular lighting conditions. The bottom of the apparatus was lined with clean absorbent paper marked with a 4×9 grid pattern, forming 12 cm×12 cm squares with marked coordinates.
Apis mellifera Carniolan foraging worker honeybees were obtained from a local apiary (typically 60 bees per shipment). Thirty honeybees were put into each testing chamber and were allowed to acclimate for 24 hours with food and water freely available.
At the beginning of each test day all food was removed from the test chamber, but water was continually available throughout all tests. For each test, approximately 0.3 g of organic, raw orange blossom honey was added to each clean small plastic weigh boat (Cole-Palmer). The honey boats were placed in small plastic culture dishes, which were distributed in the marked squares in the chambers. The positions of the dishes on the grid for a set of trials was chosen to avoid the bees' preferred resting area so that they had to find the food actively, but the same dish positions were maintained for a given set of trials. […] The honey in each boat was weighed on an analytical balance before and after the test, with the screened sample as a control for evaporative loss. The fume extractor was left off during the experimental trails, and was turned on to clear the air after the test dishes were covered and removed from the chamber at the end of each trial.
Based on the observation that bees tend to return to dishes in the same position where they have fed before, each set of trials with each group of bees began with “Pattern Identification” tests to see which dishes lose the most weight, reflecting the most feeding. Once bees were consuming an acceptable amount in 10-15 min, typically in 1-2 trials, we began a set of test compound trials. The test compound was pipetted onto pieces of filter paper placed on the dish bottom below the boat containing a fresh, weighed honey sample so that the test compound was inaccessible to the bees. We used 2 μL of a candidate compound at a concentration of 0.05-0.5%, in Triton X-100 or paraffin oil, on each of four pieces of filter paper per dish. The test-solution dishes were set at the same positions as the one or two dishes favored in the preceding Pattern Identification trial. To eliminate interference from the solvent, the other dishes without the test substance contained the same volume of the appropriate solvent on filter papers as the test solution dishes. The bees were allowed to feed for 10-15 minutes. Bee movements were recorded by a small, wide-angle digital video camcorder (HD Hero 960; GoPro, Halfmoon Bay, Calif.) placed on a tripod in front of the test chamber. The bees were given a brief rest while the honey was weighed and a second test was begun with fresh dishes, except that the test compound-containing dish or dishes were placed at whichever positions were most visited in the preceding test. […] The bees were then rested for 1-3 hours and a subsequent set of trials begun with another Pattern Identification. […]

Where [4] appears, read: amount 0.5%, negative = increase in food consumption.

Turning to `O=C(Nc1ccccc1C(=O)Nc1ccccc1Cl)c1ccccc1` [compound 10, 2-(benzoylamino)-N-(2-chlorophenyl)benzamide], in experiment [1], the “2-heptanone positive bees testing positive to compound” value was determined as 4.8%. In addition, in experiment [2], the “OBP2 binding characteristic of compound” value is “Moderate (Moderate, indicates that 50% or less of the compound bound to OBP2.)”. For the same compound, in experiment [3] (setting [4]), the “Repellence Score” value was 45.6%.
As to `COc1ccc(C(=O)C=Cc2cn(C)c3ccccc23)cc1` [compound 50, 1-(4-methoxyphenyl)-3-(1-methyl-1H-indol-3-yl)-2-propen-1-one], the “2-heptanone positive bees testing positive to compound” value in experiment [1] turned out to be 22.2%. The “Repellence Score” value in experiment [3] (setting [4]) stood at 55.7%.
As for `COc1ccc(CN2CCN(C)CC2)c(C)c1C` [compound 25], the “2-heptanone positive bees testing positive to compound” value in experiment [1] is reported as 6.6%. Further, in experiment [2], the “OBP2 binding characteristic of compound” value is on record as “Low*”.
On to `Ic1ccc(-c2cn3ccsc3n2)cc1` [compound 53], for which the “2-heptanone positive bees testing positive to compound” value in experiment [1] was found to be 18.2%. Moreover, the “OBP2 binding characteristic of compound” value in experiment [2] is “Moderate (Moderate, indicates that 50% or less of the compound bound to OBP2.)”.
For `COC(=O)C=C(C)NC(=O)c1ccc(F)cc1` [compound 59], the “2-heptanone positive bees testing positive to compound” value in experiment [1] was 16.7%. Moreover, the “OBP2 binding characteristic of compound” value in experiment [2] was “Moderate (Moderate, indicates that 50% or less of the compound bound to OBP2.)”.
`Cc1ccc2c(c1Br)C(=NNC(=O)C1CC13CCC3)C(=O)N2` (stereo not shown) [compound 55]: in experiment [1], the “2-heptanone positive bees testing positive to compound” value is listed as 13.6%. The “OBP2 binding characteristic of compound” value in experiment [2] is reported as “Moderate (Moderate, indicates that 50% or less of the compound bound to OBP2.)”.
Turning to `CC1CN(c2ccc([N+](=O)[O-])c(NCCOc3ccc(Cl)cc3)c2)CCN1` (stereo not shown) [compound 60], the “2-heptanone positive bees testing positive to compound” value in experiment [1] turned out to be 25.0%. In addition, the “OBP2 binding characteristic of compound” value in experiment [2] is listed as “Moderate (Moderate, indicates that 50% or less of the compound bound to OBP2.)”.
On to `O=[N+]([O-])c1cc2c(cc1CN1CCN(c3ccccc3)CC1)OCO2` [compound 26], for which the “2-heptanone positive bees testing positive to compound” value in experiment [1] was 14.8%. For the same compound, the “Effectiveness at 10-fold lower concentration” value in experiment [3] (0.05% compared with 0.5%) is given as “significantly more effective”. Besides, the “Repellence Score” value is 60.0% in experiment [3] (amount 0.05%) and 58.6% in experiment [3] (setting [4]).
With `O=c1[nH]c2ccccc2nc1-c1ccccc1NCc1ccc(F)cc1` [compound 18], the “2-heptanone positive bees testing positive to compound” value in experiment [1] is 4.1%. The “OBP2 binding characteristic of compound” value in experiment [2] is recorded as “Strong (Strong, indicates that 51% or more of the compound bound to OBP2.)”.
In the case of `c1ccc(CCN(Cc2ccccc2)Cc2cccnc2)cc1` [compound 39], the “2-heptanone positive bees testing positive to compound” value in experiment [1] is on record as 1.9%. Besides, the “OBP2 binding characteristic of compound” value in experiment [2] is given as “Moderate (Moderate, indicates that 50% or less of the compound bound to OBP2.)”.
`COc1ccc(CN2CCOCC2)c(C)c1C` [compound 33]: in experiment [1], the “2-heptanone positive bees testing positive to compound” value amounted to 8.5%. For the same compound, in experiment [2], the “OBP2 binding characteristic of compound” value is “Low*”.
With `COc1cc(C=NO)ccc1Oc1ccc([N+](=O)[O-])cc1` [compound 3, 3-methoxy-4-(4-nitrophenoxy)benzaldehyde oxime], the “2-heptanone positive bees testing positive to compound” value in experiment [1] was found to be 14.5%. Also, the “Repellence Score” value in experiment [3] (setting [4]) was determined as 49.8%.
As for `COc1ccc(CN2CCN(c3cccc(C)c3C)CC2)c(C)c1C` [compound 29], the “2-heptanone positive bees testing positive to compound” value in experiment [1] amounted to 0.0%. In experiment [2], the “OBP2 binding characteristic of compound” value is reported as “Low*”.
With `Cc1cc(O)c(C2=Nc3ccccc3SC(c3ccc(O)cc3)C2)c(=O)o1` (stereo not shown) [compound 35], in experiment [1], the “2-heptanone positive bees testing positive to compound” value stood at 9.0%. Further, the “OBP2 binding characteristic of compound” value in experiment [2] was “Moderate (Moderate, indicates that 50% or less of the compound bound to OBP2.)”.
With `COc1cccc(C(=O)Oc2ccc3c(c2)C(C)=CC(C)(C)N3)c1` [compound 37], the “2-heptanone positive bees testing positive to compound” value in experiment [1] was 14.4%. In addition, the “OBP2 binding characteristic of compound” value in experiment [2] is listed as “Moderate (Moderate, indicates that 50% or less of the compound bound to OBP2.)”.
For `CCn1c2ccccc2c2cc(C=Nc3ccc(C(N)=O)cc3)ccc21` [compound 56], the “2-heptanone positive bees testing positive to compound” value in experiment [1] was 18.2%. The “OBP2 binding characteristic of compound” value in experiment [2] is reported as “Moderate (Moderate, indicates that 50% or less of the compound bound to OBP2.)”.
Regarding `COc1ccc2oc(C)c(C(=O)c3ccc(Br)cc3)c2c1` [compound 17], the “2-heptanone positive bees testing positive to compound” value in experiment [1] was determined as 6.2%. Moreover, the “OBP2 binding characteristic of compound” value in experiment [2] is reported as “Strong (Strong, indicates that 51% or more of the compound bound to OBP2.)”.
